{"source": "patent US20190275169A1", "about": "“TARGETED IMMUNOSUPPRESSION FOR OPTOGENETIC INTERVENTION” (Circuit Therapeutics, Inc., priority 2018, published 2019)", "test_system": "light responsive excitatory opsin protein ChR2 delivered virally via AAV and expressed in the sensory nerve of a mouse", "test": "Light-responsiveness over time after AAV delivery of ChR2 to the sensory nerve, immunosuppressant paradigms versus saline (FIG. 2A-2I)", "type": "in vivo", "conditions": "drug paradigm and schedule as in FIG. 1; light approx. 450 nm", "text": "Referring to FIG. 1, various drug groupings are listed (2) which have been known to modulate the immune system, including cyclosporine (“Cyc”), cyclosporine+mycophenolate mofetil (“MMF”), dexamethasone, rapamycin in various dosage configurations, rapamycin+dexamethasone+FK506 (also known as “tacrolimus”; an immunosuppressive drug used mainly after organ transplant to lower rejection risk), and metformin (a medication utilized in treating diabetes and polycystic ovary syndrome which also has been inculcated in immune suppression). Each of these listed drugs has previously been approved by the U.S. F.D.A. for different indications, and the depicted drug schedules associated with each grouping feature dosing and scheduling information that previously has been published in different treatment paradigms, such as for cardiovascular or transplant rejection scenarios.\nThus, referring again to the table (2) of FIG. 1, for cyclosporine, a subcutaneous (or “subQ” or “SQ”) regime is listed, wherein cyclosporine is injected subcutaneously for one week prior to injection of genetic material, and then every two days after, as is a cyclosporine+MMF combination (noted as “Cyc+MMF”) which has been used with success, for example, in clinical trials with adeno associated virus (“AAV”) gene therapies; the term “I.P.” or “i.p.” refers to intraperitoneal injection. […]"}
{"smiles": "CN(C)C(=N)N=C(N)N", "note": "[metformin]", "values": [{"measurement": "effect on proportion of animals still exhibiting light-responsiveness versus saline", "result": "does not seem to have a significant impact"}]}
